Literature values in patent US20170266323A1, “NEAR-INFRARED-II FLUORESCENT AGENTS, METHODS OF MAKING NEAR-INFRARED-II FLUORESCENT AGENTS, AND METHODS OF USING WATER-SOLUBLE NIR-II FLUORESCENT AGENTS” (The Board of Trustees of the Leland Stanford Junior …, priority 2013, published 2017).

Tests used:
[1] = in DCM, rhodamine B in ethanol as reference, reported by one study

- fluorescence quantum efficiency [1]: ~1.7±0.5%
- solubility in water: water insoluble
SMILES: ClC1=C(C=Cc2cc(-c3ccccc3)[s+]c(-c3ccccc3)c2)CCCC1=CC=C1C=C(c2ccccc2)SC(c2ccccc2)=C1.F[B-](F)(F)F [IR-1061, 4-[2-[2-Chloro-3-[(2,6-diphenyl-4H-thiopyran-4-ylidene)ethylidene]-1-cyclohexen-1-yl]ethenyl]-2,6-diphenylthiopyrylium tetrafluoroborate]
